Test results taken from patent publication US8178688B2, “Benzamidine derivatives, process for the preparation thereof and pharmaceutical composition comprising the same” (Dong Wha Pharmaceutical Co., Ltd., priority 2004, dated 2012).
Where two headings read alike, the source gives them in different places.

How the values were obtained:
[1] = test system: cells; assay: Cytotoxicity test (MTT); assay type: cell-based; settings: 10^−6M, 72 hrs, compared with the control group
Procedure: Cytotoxic effect of benzamidine derivatives was evaluated by the experiment described below.
The test substance was diluted in appropriate solvent at 10^−2M concentration. […] Cells to be used in cytotoxitic test were plated on a 96-well microplate in a dose of 1×10^4 cell/100 μL per well and cultured for 72 hrs. 25 μL of MTT [3-(4,5-dimethyl-2-thiazolyl)-2,5-diphenyl-2H-tetrazolium bromide] dissolved in PBS at 2 mg/mL were added before 4 hrs of the end of culture. After reaction, the plates were centrifuged, medium was decanted and 100 μL of DMSO was added to dissolve formazan. Lastly, the absorbance of developed plates was measured at 540 nm.

[2] = test system: osteoclast differentiation; assay: Inhibitory effects on osteoclast differentiation (co-culture of bone marrow cells with osteoblast, TRAP staining); assay type: cell-based, mice; settings: Mus musculus, Osteoclast, 168 h, read-out: % inhibitory activity on osteoclastogenesis
How it was run: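 Percent inhibition versus control is based on microscope counts of TRAP-positive osteoclasts (3 or more nuclei) after 7 days of compound exposure. Cultures paired ddY mouse marrow cells with ICR calvarial osteoblasts, driven by dexamethasone 10^−7M plus vitamin D3 10^−8M, with medium and compound changed every 2–3 days.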

[3] = 1 μm, co-culture of bone marrow cells and osteoblast, 7 days, TRAP-positive osteoclasts versus controls
[4] = 1 m, co-culture of bone marrow cells and osteoblast, 7 days, TRAP-positive osteoclasts versus controls

Structure (SMILES)	Survival rates of the cells ([1]; MC3T3-E1 cells) [%]	Survival rates of the cells ([1]; ST2 cells) [%]	inhibition at 1 µM [2, 3] [%]	inhibition at 1 µM [2] [%]	inhibition at 1 µM [2, 4] [%]
N=C(NO)c1ccc(OCCCCCOc2ccc(-c3nc(-c4ccccc4)sc3Cc3ccccc3)cc2)cc1 [Example 40, N-hydroxy-4-(5-[4-(5-benzyl-2-phenyl-1,3-thiazol-4-yl)phenoxy]pentoxy)-benzamidine]	100.0	53.3	60.1	–	–
Cc1nc(-c2ccc(OCCCCCOc3ccc(C(=N)NO)cc3)cc2)c(CC2CCCC2)s1 [Example 45, N-hydroxy-4-(5-[4-(5-cyclopentylmethyl-2-methyl-1,3-thiazol-4-yl)phenoxy]pentoxy)-benzamidine]	75.9	37.0	97.7	–	–
CCc1nc(-c2ccc(OCCCCCOc3ccc(C(=N)NO)cc3)cc2)c(CC2CCCC2)s1 [Example 46, N-hydroxy-4-(5-[4-(5-cyclopentylmethyl-2-ethyl-1,3-thiazol-4-yl)phenoxy]pentoxy)-benzamidine]	100.0	48.3	96.9	–	–
N=C(NO)c1ccc(OCCCCCOc2ccc(-c3nc(-c4ccccc4)sc3CC3CCCC3)cc2)cc1 [Example 48, N-hydroxy-4-(5-[4-(5-cyclopentylmethyl-2-phenyl-1,3-thiazol-4-yl)phenoxy]pentoxy)-benzamidine]	100.0	51.2	72.1	–	–
N=C(NO)c1ccc(OCCCCCOc2ccc(-c3nc(-c4cccnc4)sc3CC3CCCC3)cc2)cc1 [Example 49, N-hydroxy-4-(5-[4-(5-cyclopentylmethyl-2-pyridin-3-yl-1,3-thiazol-4-yl)phenoxy]pentoxy)-benzamidine]	83.5	39.0	77.1	–	–
N=C(NO)c1ccc(OCCCCCOc2ccc(-c3nc(C4CCCCC4)sc3CC3CCCC3)cc2)cc1 [Example 50, N-hydroxy-4-(5-[4-(5-cyclopentylmethyl-2-cyclohexyl-1,3-thiazol-4-yl)phenoxy]pentoxy)-benzamidine]	81.0	61.0	–	79.8	–
CCCCCc1nc(-c2ccc(OCCCCCOc3ccc(C(=N)NO)cc3)cc2)c(CC2CCCC2)s1 [Example 51, N-hydroxy-4-(5-[4-(5-cyclopentylmethyl-2-pentyl-1,3-thiazol-4-yl)phenoxy]pentoxy)-benzamidine]	95.5	66.5	–	74.8	–
N=C(NO)c1ccc(OCCCCCOc2ccc(-c3csc(N)n3)cc2)cc1 [Example 57, N-hydroxy-4-(5-[4-(2-amino-1,3-thiazol-4-yl)phenoxy]pentoxy)-benzamidine]	52.1	19.9	60.4	–	–
CCCCc1sc(N)nc1-c1ccc(OCCCCCOc2ccc(C(=N)NO)cc2)cc1 [Example 63, N-hydroxy-4-(5-[4-(2-amino-5-butyl-1,3-thiazol-4-yl)phenoxy]pentoxy)-benzamidine]	52.5	29.3	–	–	56.5
N=C(NO)c1ccc(OCCCCCOc2ccc(-c3nc(N)sc3CC3CCCC3)cc2)cc1 [Example 67, N-hydroxy-4-(5-[4-(2-amino-5-cyclopentylmethyl-1,3-thiazol-4-yl)phenoxy]pentoxy)-benzamidine]	68.9	40.0	–	–	81.4
CNc1nc(-c2ccc(OCCCCCOc3ccc(C(=N)NO)cc3)cc2)c(C)s1 [Example 86, N-hydroxy-4-(5-[4-(5-methyl-2-methylamino-1,3-thiazol-4-yl)phenoxy]pentoxy)-benzamidine]	100.0	48.6	–	–	52.9
CCNc1nc(-c2ccc(OCCCCCOc3ccc(C(=N)NO)cc3)cc2)c(C)s1 [Example 87, N-hydroxy-4-(5-[4-(2-ethylamino-5-methyl-1,3-thiazol-4-yl)phenoxy]pentoxy)-benzamidine]	97.3	49.8	–	–	58.1
CCCNc1nc(-c2ccc(OC(C)CCCOc3ccc(C(=N)NO)cc3)cc2)c(C)s1 (stereo not drawn) [Example 88, N-hydroxy-4-(4-[4-(5-methyl-2-propylamino-1,3-thiazol-4-yl)phenoxy]pentoxy)-benzamidine]	94.3	48.7	–	–	15.9
Cc1sc(NC(=O)c2ccncc2)nc1-c1ccc(OCCCCCOc2ccc(C(=N)NO)cc2)cc1 [Example 91, N-hydroxy-4-(5-[4-(5-methyl-2-(4-pyridylcarbonyl)amino-1,3-thiazol-4-yl)phenoxy]pentoxy)-benzamidine]	41.3	20.8	–	–	92.9
CCS(=O)(=O)Nc1nc(-c2ccc(OCCCCCOc3ccc(C(=N)NO)cc3)cc2)c(C)s1 [Example 93, N-hydroxy-4-(5-[4-(2-ethanesulfonylamino-5-methyl-1,3-thiazol-4-yl)phenoxy]pentoxy)-benzamidine]	66.8	55.0	–	–	63.7
CCc1sc(NC)nc1-c1ccc(OCCCCCOc2ccc(C(=N)NO)cc2)cc1 [Example 96, N-hydroxy-4-(5-[4-(5-ethyl-2-methylamino-1,3-thiazol-4-yl)phenoxy]pentoxy)-benzamidine]	65.1	27.8	–	–	64.3
CCCNc1nc(-c2ccc(OCCCCCOc3ccc(C(=N)NO)cc3)cc2)c(CC)s1 [Example 98, N-hydroxy-4-(5-[4-(5-ethyl-2-propylamino-1,3-thiazol-4-yl)phenoxy]pentoxy)-benzamidine]	77.1	26.9	–	–	94.7
CCc1sc(NC(=O)c2ccncc2)nc1-c1ccc(OCCCCCOc2ccc(C(=N)NO)cc2)cc1 [Example 100, N-hydroxy-4-(5-[4-(5-ethyl-2-(4-pyridylcarbonyl)amino-1,3-thiazol-4-yl)phenoxy]pentoxy)-benzamidine]	62.8	39.1	–	–	63
CNc1nc(-c2ccc(OCCCCCOc3ccc(C(=N)NO)cc3)cc2)c(Cc2ccccc2)s1 [Example 107, N-hydroxy-4-(5-[4-(5-benzyl-2-methylamino-1,3-thiazol-4-yl)phenoxy]pentoxy)-benzamidine]	65.2	43.9	–	–	53.2
CNc1nc(-c2ccc(OCCCCCOc3ccc(C(=N)NO)cc3)cc2)c(CC2CCCC2)s1 [Example 109, N-hydroxy-4-(5-[4-(5-cyclopentylmethyl-2-methylamino-1,3-thiazol-4-yl)phenoxy]pentoxy)-benzamidine]	65.7	39.0	–	–	80.5
N=C(NO)c1ccc(OCCCCCOc2ccc(-c3nc(NC(=O)c4ccncc4)sc3CC3CCCC3)cc2)cc1 [Example 112, N-hydroxy-4-(5-[4-(5-cyclopentylmethyl-2-(4-pyridylcarbonyl)amino-1,3-thiazol-4-yl)phenoxy]pentoxy)-benzamidine]	86.7	63.6	–	–	76.8
CCS(=O)(=O)N(C)c1nc(-c2ccc(OCCCCCOc3ccc(C(=N)NO)cc3)cc2)cs1 [Example 118, N-hydroxy-4-(5-[4-(2-(ethanesulfonyl-methyl-amino)-1,3-thiazol-4-yl)phenoxy]pentoxy)-benzamidine]	75.3	53.2	–	–	82.9
CCN(CCO)c1nc(-c2ccc(OCCCCCOc3ccc(C(=N)NO)cc3)cc2)c(C)s1 [Example 121, N-hydroxy-4-(5-[4-(2-(ethyl-(2-hydroxyethyl)-amino)-5-methyl-1,3-thiazol-4-yl)phenoxy]pentoxy)-benzamidine]	100.0	41.4	–	–	69.4
